Earlier results on one compound are cited in US6043252A, “Carboline derivatives” (Icos Corporation, priority 1998, dated 2000).

In one data set the test system is MED. Particulars: clinical; oral, sublingual, intraurethral, i.c. or topical; cited from earlier work.
Another data set deals with PDE6. Particulars: cited from earlier work.

For `CCCc1nn(C)c2c(=O)[nH]c(-c3cc(S(=O)(=O)N4CCN(C)CC4)ccc3OCC)nc12` [sildenafil], the “efficacy in MED” value in the data set with MED is recorded as “has shown efficacy in oral administration clinical trials for MED”. Moreover, the “selectivity with respect to PDE6” value in the data set with PDE6 is “little selectivity with respect to PDE6”.
